Among the data in ChEMBL document CHEMBL1201862, “PubChem BioAssay data set” (2004) are IC50, EC50 and AC50 values, retold here.

Experiment [1] concerns the target T1, Delta-type opioid receptor (Homo sapiens, UniProt P41143). The experiment can be described thus: HTS Image-Based Screen for Antagonists of the DOR Receptor. [Related pubchem assays (depositor defined):AID1777, AID1785, AID1786, AID2133]. Format: functional.
Experiment [2] concerns the target T1, Delta-type opioid receptor. Kind of experiment: HTS Image-Based Screen for Agonists of the DOR Receptor. [Related pubchem assays (depositor defined):AID1777, AID1786, AID2133]. Format: functional.
In another experiment the target is Beta-galactosidase (Escherichia coli, UniProt Q8VNN2). Format: functional.
Experiment [3] concerns the target T2, Kappa-type opioid receptor (Homo sapiens, UniProt P41145). It is filed as functional.
Experiment [4] addresses T3, Mu-type opioid receptor (Homo sapiens, UniProt P35372). The experiment can be described thus: HTS Image-Based Screen for Agonists of the MOR Receptor. [Related pubchem assays (depositor defined):AID1777, AID1785, AID1786, AID2133]. Format: functional.
Experiment [5] concerns the target T2, Kappa-type opioid receptor. Format: functional. The source holds these as a separate data set.
The nature of experiment [6]: Luminescence Cell-Based Dose Retest to Confirm Inhibitors of Cancer Stem Cells. [Related pubchem assays (depositor defined):AID2717, AID2721]. Format: functional. As to conditions: Homo sapiens.
Experiment [7] concerns the target T4, Corticotropin-releasing factor receptor 2/Corticotropin-releasing factor-binding protein (Homo sapiens, UniProt P24387+Q13324).
T4 sequence (Q13324 whole entry): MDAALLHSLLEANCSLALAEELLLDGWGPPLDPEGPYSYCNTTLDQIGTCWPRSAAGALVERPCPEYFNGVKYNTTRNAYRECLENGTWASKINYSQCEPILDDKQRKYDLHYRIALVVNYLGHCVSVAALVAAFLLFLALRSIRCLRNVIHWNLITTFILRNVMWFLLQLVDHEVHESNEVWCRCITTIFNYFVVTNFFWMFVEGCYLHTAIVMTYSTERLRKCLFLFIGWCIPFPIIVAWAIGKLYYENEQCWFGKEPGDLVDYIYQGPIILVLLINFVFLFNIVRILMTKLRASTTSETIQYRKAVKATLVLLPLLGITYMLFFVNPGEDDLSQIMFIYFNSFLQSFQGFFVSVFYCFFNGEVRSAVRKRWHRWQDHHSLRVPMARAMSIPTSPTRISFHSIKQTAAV
T4 sequence (P24387 whole entry): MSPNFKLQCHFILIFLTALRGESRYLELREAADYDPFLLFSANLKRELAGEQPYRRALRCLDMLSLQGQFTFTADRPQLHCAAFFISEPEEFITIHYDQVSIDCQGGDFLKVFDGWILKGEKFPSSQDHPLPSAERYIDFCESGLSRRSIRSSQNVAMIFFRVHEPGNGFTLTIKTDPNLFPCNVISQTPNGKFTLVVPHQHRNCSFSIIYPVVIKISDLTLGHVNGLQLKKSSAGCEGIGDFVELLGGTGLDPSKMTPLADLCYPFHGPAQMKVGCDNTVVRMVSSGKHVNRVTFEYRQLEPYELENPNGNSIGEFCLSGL
The experiment can be described thus: Dose Response confirmation of uHTS hits for small molecule antagonists of the CRF-binding protein and CRF-R2 receptor complex. It is filed as functional. As to conditions: read-out: IC50_Mean.

For experiment [8], the target named is T5, Heat shock factor protein 1 (Mus musculus, UniProt P38532).
T5 sequence (P38532 whole entry): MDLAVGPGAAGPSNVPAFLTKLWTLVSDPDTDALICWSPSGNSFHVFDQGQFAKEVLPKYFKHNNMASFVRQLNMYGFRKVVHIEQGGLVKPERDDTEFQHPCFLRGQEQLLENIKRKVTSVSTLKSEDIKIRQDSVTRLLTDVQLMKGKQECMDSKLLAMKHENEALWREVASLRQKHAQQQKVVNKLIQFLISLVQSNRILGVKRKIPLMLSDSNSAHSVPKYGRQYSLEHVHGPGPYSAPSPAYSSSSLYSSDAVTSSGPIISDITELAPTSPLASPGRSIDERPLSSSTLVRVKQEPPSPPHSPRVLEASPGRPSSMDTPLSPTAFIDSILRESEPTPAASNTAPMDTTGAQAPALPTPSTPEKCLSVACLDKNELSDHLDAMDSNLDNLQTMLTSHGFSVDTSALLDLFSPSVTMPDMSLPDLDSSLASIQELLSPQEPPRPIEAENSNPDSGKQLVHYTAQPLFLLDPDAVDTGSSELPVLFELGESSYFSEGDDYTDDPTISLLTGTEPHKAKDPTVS
The experiment can be described thus: decrease of HSF1-responsive luciferase luminescence – cell-based, NIH3T3, dose retest, confirmation (AID 2382).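 Also: NIH3T3 fibroblasts with HSF1-driven luciferase reporter stressed by proteasome inhibitor MG132; luminescence from HSF1-driven luciferase expression after 8 hours of MG132 stress.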 Format: functional.

Experiment [9] can be described thus: antiviral protection against BTV-induced cell death – arbovirus, BSR cells, confirmation (AID 1250).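 Also: protection from viral cytopathic effect measured as cell viability by ATP luminescence.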 Format: functional.
The target in experiment [10] is T4, Corticotropin-releasing factor receptor 2/Corticotropin-releasing factor-binding protein. Kind of experiment: activators of CRF receptor 2 with binding protein – uHTS hits, confirmation (AID 602473). Format: functional. As to conditions: read-out: EC50_Mean.
Experiment [11] can be described thus: blockers of CRF-binding protein–CRF-R2 complex – cell-based, uHTS hits, 384-well, dose response (AID 651639). Format: functional, Homo sapiens. As to conditions: read-out: IC50_Mean.
The nature of experiment [12]: viability loss of HMLE_sh_eGFP cells – cell-based, luminescence, counter-screen for HMLE_sh_ECad selective toxicity project, dose response (AID 463074).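 Also: HMLE human mammary epithelial cells expressing control shRNA against eGFP.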 Format: functional, Homo sapiens. In general terms: The purpose of a counterscreen is to sort out artefacts and off-target activity.
The target in experiment [13] is UDP-galactopyranose mutase (Mycobacterium tuberculosis, UniProt P9WIQ1). Kind of experiment: Inhibitors of Mycobacterium tuberculosis UDP-galactopyranose mutase (UGM) enzyme Measured in Biochemical System Using Plate Reader - 2105-02_Inhibitor_Dose_CherryPick_Activity. [Related pubchem assays (depositor defined):AID504439].
The subject of experiment [14] is HEK293. Kind of experiment: cells. As to conditions: Homo sapiens. Format: functional, cell-based.
In experiment [15] the test system is HEK293. Kind of experiment: cells. As to conditions: Homo sapiens.
The target in another experiment is Tumor necrosis factor (Homo sapiens, UniProt P01375). Kind of experiment: analog potency on TNFa NF-kB signaling – cell-based, revised, SAR follow-up (AID 2337). It is filed as functional.
Experiment [16] deals with Nucleotide-binding oligomerization domain-containing protein 2 (Homo sapiens, UniProt Q9HC29). Kind of experiment: inhibition of NOD2-driven NF-kB reporter – cell-based, luminescence, uHTS, HEK293 (AID 1566). It is filed as functional.
Experiment [17] relates to HEK293. Kind of experiment: inhibition of NOD1-driven NF-kB reporter – cell-based, luminescence, uHTS, primary screen (AID 1578). It is filed as functional. As to conditions: Homo sapiens.
Experiment [18] concerns HEK293. Kind of experiment: cells. Format: functional, cell-based. As to conditions: Homo sapiens. The source holds these as a separate data set.
Experiment [19] concerns HEK293. The experiment can be described thus: NOD2 signaling inhibitors in MDP-stimulated cells, cell-based, uHTS, luminescence (AID 2001). It is filed as functional. As to conditions: Homo sapiens.
Experiment [20] concerns the target Nucleotide-binding oligomerization domain-containing protein 1 (Homo sapiens, UniProt Q9Y239). The experiment can be described thus: blockers of NOD1 pathway activity – revised, SAR follow-up (AID 2333). It is filed as functional.
For experiment [21], the system named is HEK293. The experiment can be described thus: cells. It is filed as functional, cell-based. As to conditions: Homo sapiens. The source holds these as a separate data set.
The target in experiment [22] is T1, Delta-type opioid receptor. The experiment can be described thus: SAR Analysis of Antagonists of the DOR Receptor using an Image-Based Assay - Set 2. [Related pubchem assays (depositor defined):AID1777, AID1785, AID1786, AID1966, AID2133, AID2136, AID2284, AID2285, AID2357]. Format: functional.
The target in experiment [23] is T1, Delta-type opioid receptor. Kind of experiment: SAR Analysis of Agonists of the DOR Receptor using an Image-Based Assay - Set 2. [Related pubchem assays (depositor defined):AID1777, AID1785, AID1786, AID1966, AID2133, AID2136, AID2284, AID2285, AID2370]. It is filed as functional.
Experiment [24] addresses T3, Mu-type opioid receptor. The experiment can be described thus: SAR Analysis of Agonists of the MOR Receptor using an Image-Based Assay - Set 2. [Related pubchem assays (depositor defined):AID1777, AID1785, AID1786, AID1966, AID2133, AID2136, AID2284, AID2285, AID2352]. It is filed as functional.
The target in experiment [25] is T3, Mu-type opioid receptor. Kind of experiment: SAR Analysis of Antagonists of the MOR Receptor using an Image-Based Assay - Set 2. [Related pubchem assays (depositor defined):AID1777, AID1785, AID1786, AID1966, AID2133, AID2136, AID2284, AID2285, AID2420]. Format: functional.
In experiment [26] the target is T6, Intestinal-type alkaline phosphatase (Homo sapiens, UniProt P09923). Kind of experiment: human intestinal alkaline phosphatase activators, dose response, biochemical, luminescence, uHTS hits (AID 463120). It is filed as functional.
Experiment [27] has as its target T6, Intestinal-type alkaline phosphatase. Kind of experiment: activation of human intestinal alkaline phosphatase – biochemical, luminescent, uHTS hits, set 2, dose response (AID 488817).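 Also: potency of activators that raise enzyme activity.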 Format: functional.
For experiment [28], the target named is T7, Alkaline phosphatase, tissue-nonspecific isozyme (Homo sapiens, UniProt P05186).
T7 sequence (P05186 whole entry): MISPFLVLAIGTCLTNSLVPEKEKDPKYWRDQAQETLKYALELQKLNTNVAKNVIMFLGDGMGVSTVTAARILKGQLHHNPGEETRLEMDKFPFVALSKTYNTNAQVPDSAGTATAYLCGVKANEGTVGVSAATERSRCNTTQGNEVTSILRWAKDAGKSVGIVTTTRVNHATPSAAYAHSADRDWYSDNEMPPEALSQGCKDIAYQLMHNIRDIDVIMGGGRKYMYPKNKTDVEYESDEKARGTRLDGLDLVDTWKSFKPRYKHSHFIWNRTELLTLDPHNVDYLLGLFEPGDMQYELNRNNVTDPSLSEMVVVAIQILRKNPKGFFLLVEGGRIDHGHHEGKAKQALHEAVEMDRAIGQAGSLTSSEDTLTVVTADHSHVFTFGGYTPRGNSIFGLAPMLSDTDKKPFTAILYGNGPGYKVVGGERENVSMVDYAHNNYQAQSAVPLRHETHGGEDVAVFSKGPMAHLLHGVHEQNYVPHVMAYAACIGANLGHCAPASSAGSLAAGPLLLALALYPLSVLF
The experiment can be described thus: activation of tissue-nonspecific alkaline phosphatase – biochemical, TNAP isozyme, human IAP uHTS hits, selectivity assay for human IAP activator project, dose response (AID 488886).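 Also: potency of compounds raising TNAP activity as a selectivity check on IAP activators.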 It is filed as functional.

The target in experiment [29] is Intestinal-type alkaline phosphatase (Mus musculus, UniProt P24822). The experiment can be described thus: PubChem AID 488874. It is filed as functional.

Activity calls are given as the source filed them.

T1 sequence (P41143 whole entry): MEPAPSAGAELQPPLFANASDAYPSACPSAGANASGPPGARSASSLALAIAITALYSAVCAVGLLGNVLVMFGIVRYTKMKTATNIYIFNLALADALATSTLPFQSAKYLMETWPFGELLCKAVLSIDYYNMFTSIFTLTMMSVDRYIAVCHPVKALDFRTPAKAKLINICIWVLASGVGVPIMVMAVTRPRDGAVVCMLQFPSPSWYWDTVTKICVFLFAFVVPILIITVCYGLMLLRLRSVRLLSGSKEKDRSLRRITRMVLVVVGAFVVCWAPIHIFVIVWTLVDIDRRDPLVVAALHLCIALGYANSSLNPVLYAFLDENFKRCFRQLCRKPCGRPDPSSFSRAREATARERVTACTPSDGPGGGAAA
T3 sequence (P35372 whole entry): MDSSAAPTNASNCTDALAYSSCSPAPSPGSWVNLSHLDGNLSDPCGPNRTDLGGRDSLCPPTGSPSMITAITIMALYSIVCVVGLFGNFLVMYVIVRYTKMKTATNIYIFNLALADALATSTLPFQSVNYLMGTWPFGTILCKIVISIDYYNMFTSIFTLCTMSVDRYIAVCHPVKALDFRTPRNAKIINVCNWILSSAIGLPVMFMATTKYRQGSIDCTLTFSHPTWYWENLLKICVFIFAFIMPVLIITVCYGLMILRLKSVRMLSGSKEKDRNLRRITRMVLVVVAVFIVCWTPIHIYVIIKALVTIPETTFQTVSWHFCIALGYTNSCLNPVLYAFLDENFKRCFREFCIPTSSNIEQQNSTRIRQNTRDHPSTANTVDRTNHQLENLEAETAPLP
T6 sequence (P09923 whole entry): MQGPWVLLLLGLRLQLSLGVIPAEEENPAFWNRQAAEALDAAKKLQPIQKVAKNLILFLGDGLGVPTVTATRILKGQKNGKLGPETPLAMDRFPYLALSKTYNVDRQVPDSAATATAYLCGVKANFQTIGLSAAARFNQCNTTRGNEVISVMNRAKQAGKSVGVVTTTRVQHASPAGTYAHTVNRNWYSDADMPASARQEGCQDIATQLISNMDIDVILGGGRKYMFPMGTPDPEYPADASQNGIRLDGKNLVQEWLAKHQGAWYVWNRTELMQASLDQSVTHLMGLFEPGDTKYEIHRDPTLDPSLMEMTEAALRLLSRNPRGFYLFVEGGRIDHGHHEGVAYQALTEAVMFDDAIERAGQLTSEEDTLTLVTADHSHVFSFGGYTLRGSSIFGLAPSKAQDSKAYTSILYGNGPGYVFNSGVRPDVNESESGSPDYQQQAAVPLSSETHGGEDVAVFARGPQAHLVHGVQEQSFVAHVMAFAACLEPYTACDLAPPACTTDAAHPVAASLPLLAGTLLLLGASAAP
T2 sequence (P41145 whole entry): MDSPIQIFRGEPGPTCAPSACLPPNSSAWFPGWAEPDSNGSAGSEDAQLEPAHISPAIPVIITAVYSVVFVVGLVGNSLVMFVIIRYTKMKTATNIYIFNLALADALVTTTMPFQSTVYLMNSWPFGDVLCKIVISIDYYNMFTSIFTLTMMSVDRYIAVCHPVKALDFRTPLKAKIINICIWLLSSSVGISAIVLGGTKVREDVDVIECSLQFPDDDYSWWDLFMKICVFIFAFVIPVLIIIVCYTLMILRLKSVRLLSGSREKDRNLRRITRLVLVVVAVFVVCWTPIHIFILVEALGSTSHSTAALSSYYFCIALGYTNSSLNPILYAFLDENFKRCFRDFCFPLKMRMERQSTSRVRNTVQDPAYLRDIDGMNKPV
Tumor necrosis factor, sequence (P01375 whole entry, the tested form may be a part): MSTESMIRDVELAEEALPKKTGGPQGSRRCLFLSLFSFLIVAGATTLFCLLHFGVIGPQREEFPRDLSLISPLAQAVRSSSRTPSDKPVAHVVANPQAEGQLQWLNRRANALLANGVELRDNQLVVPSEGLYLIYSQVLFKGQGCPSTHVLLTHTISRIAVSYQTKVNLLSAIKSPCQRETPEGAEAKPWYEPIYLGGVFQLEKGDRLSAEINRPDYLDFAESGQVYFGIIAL
Nucleotide-binding oligomerization domain-containing protein 1, sequence (Q9Y239 whole entry, the tested form may be a part): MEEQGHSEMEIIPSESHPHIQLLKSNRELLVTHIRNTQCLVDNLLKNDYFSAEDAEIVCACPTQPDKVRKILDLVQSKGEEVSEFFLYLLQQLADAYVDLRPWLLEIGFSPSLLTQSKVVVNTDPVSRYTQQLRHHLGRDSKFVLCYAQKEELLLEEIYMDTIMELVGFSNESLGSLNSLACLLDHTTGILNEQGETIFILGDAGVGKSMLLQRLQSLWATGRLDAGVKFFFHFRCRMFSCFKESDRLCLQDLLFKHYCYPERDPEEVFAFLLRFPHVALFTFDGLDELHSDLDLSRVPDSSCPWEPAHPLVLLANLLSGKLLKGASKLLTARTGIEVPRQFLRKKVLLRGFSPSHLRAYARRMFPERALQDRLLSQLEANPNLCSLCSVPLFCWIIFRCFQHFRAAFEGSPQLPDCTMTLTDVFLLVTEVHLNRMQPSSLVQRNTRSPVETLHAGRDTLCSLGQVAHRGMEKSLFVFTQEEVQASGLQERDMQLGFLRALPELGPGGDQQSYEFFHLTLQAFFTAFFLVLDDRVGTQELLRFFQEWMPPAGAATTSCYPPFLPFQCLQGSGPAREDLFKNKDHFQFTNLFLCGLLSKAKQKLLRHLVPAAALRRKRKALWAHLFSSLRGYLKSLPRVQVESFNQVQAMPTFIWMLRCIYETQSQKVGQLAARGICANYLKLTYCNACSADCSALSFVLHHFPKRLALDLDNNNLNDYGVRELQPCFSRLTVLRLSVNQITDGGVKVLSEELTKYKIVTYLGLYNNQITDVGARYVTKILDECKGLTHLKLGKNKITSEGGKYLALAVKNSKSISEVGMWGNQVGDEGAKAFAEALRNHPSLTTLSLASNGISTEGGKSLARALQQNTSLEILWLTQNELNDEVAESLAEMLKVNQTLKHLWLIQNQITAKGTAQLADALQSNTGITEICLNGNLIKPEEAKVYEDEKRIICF
UDP-galactopyranose mutase, sequence (P9WIQ1 whole entry): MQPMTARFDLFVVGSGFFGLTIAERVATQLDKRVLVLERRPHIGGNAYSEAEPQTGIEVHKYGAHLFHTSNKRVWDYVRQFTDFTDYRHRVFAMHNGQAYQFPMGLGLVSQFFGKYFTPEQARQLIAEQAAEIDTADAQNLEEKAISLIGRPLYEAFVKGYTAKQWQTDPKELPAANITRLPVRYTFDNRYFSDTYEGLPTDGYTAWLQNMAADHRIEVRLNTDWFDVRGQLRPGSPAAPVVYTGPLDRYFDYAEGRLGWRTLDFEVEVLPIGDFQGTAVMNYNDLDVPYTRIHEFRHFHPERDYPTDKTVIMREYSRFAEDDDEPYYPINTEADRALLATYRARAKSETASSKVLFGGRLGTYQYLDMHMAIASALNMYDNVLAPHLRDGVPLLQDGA
Nucleotide-binding oligomerization domain-containing protein 2, sequence (Q9HC29 whole entry, the tested form may be a part): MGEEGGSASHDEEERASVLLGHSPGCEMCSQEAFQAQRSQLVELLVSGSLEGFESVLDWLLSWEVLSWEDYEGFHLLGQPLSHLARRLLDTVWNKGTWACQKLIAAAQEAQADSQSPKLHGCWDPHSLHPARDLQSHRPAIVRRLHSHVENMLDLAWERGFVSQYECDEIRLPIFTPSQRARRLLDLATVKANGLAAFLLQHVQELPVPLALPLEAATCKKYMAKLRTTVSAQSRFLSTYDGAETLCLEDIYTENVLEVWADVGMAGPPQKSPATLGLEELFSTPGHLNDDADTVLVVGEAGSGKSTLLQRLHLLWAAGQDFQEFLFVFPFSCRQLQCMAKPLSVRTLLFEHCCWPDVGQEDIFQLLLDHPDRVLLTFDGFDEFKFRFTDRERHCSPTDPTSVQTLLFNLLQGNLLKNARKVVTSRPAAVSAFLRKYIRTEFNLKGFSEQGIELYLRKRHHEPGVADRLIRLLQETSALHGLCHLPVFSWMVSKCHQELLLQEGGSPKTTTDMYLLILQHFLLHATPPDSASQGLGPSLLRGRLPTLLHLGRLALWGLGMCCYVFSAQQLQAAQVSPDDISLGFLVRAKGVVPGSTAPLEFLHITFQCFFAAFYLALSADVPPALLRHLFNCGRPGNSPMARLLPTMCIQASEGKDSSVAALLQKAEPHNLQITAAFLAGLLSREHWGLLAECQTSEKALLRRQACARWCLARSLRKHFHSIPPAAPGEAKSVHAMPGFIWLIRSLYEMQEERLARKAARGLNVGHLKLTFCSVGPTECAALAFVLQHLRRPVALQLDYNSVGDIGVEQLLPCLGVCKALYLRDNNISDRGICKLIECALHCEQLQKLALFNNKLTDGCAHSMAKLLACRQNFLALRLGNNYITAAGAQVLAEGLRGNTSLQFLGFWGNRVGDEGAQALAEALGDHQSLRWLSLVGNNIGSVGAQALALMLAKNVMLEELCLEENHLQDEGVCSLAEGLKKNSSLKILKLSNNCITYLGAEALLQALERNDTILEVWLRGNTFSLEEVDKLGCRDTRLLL
Intestinal-type alkaline phosphatase (Mus musculus, UniProt P24822), sequence (P24822 whole entry): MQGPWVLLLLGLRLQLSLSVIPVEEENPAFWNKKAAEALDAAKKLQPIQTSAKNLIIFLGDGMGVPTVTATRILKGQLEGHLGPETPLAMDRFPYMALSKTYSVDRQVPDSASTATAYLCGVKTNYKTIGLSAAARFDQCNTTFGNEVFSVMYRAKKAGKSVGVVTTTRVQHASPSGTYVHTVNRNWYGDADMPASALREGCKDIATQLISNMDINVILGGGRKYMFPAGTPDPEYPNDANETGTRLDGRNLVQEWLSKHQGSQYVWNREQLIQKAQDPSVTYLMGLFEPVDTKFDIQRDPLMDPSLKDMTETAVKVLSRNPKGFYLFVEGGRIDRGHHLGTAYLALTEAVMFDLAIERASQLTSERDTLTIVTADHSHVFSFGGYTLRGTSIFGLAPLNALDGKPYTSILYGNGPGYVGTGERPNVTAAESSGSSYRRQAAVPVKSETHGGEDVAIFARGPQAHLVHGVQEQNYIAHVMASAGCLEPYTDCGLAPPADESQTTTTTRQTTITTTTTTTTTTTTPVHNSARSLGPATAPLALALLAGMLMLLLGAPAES

As to `CCCN(CCC)CC(O)Cn1cc(/C=C/C(=O)c2cccs2)c2ccccc21` (stereo unspecified), the IC50 in experiment [1] was > 32 µM (inactive); in [3], 4.14 µM; in experiment [5] it was 11.3 µM (active). Besides, the EC50 in [2] is > 32 µM (inactive); at Beta-galactosidase it was > 31.5 µM (inactive); on Mu-type opioid receptor [4], > 32 µM (inactive).

Turning to `CC(C)Cc1csc(NC(=O)c2ccc(F)cc2)c1C(=O)O`, the AC50 in experiment [6] was 25.9 µM (active); in experiment [12], 52.3 µM (active). Besides, the IC50 is 10.3 µM (active) in experiment [7], 36.3 µM (active) in experiment [9] and > 20 µM (inactive) in experiment [11]. Moreover, the EC50 was 9.87 µM (active) in experiment [8] and > 53 µM (inactive) in experiment [10].

Take `COCCCNC(=O)Cn1cc(/C=C2\C(=O)NC(=O)N(c3ccccc3F)C2=O)c2ccccc21`: in [13], the half-maximal activity concentration (AC50) is 43.7 µM (active).

For the compound `O=C(/C=C/c1cccs1)Nc1sc2c(c1C(=O)O)CCCC2`, the IC50 is > 20 µM (inactive) in the experiment with HEK293 [14]; > 20 µM (inactive) with HEK293 [15]; > 20 µM (inactive) on Tumor necrosis factor; > 20 µM (inactive) in the experiment with HEK293 [18]; > 20 µM (inactive) in the experiment on HEK293 [19]; 6.42 µM (active) in experiment [20]. Further, in the experiment on HEK293 [21], the IC50 was > 20 µM (inactive). In addition, the EC50 was > 20 µM (inactive) in experiment [16] and 8.28 µM (active) in the experiment with HEK293 [17].

With `Clc1ccc(CSc2nnc(-c3ccccn3)n2Cc2ccco2)cc1Cl`, the IC50 (in [22]; at Mu-type opioid receptor [25]) was > 32 µM (inactive) throughout. Moreover, the EC50 (in experiment [23]; at Mu-type opioid receptor [24]) was > 32 µM (inactive) in each case.

As to `CSCCC(NS(=O)(=O)c1ccccc1F)C(=O)NNC(=O)c1csc(N2CCOCC2)n1` (stereo unspecified), the EC50 in [26] is 8.88 µM (active); in experiment [27], 10.6 µM (active); in [28], 26.4 µM (active). Besides, the IC50 in experiment [29] was 70.1 µM (active).

The term AC50 denotes the midpoint of the concentration-response curve, whichever way the signal moves.
